Several values for one entry are separate records, joined by “and”; a condition that tells them apart may be missing. Equal values may be shown once.
Legend:
Aurora A = molecular target: T1, Aurora A (Homo sapiens, UniProt O14965); test: Aurora A inhibitory action (33P-ATP kinase assay, Kemptide substrate); format: biochemical; conditions: 20 μM ATP, 30° C., 20 minutes
T1 construct: histidine tag (N); made in house; host or cells: Escherichia coli BL21-CodonPlus(DE3)-RIL
T1 sequence (O14965 1-403): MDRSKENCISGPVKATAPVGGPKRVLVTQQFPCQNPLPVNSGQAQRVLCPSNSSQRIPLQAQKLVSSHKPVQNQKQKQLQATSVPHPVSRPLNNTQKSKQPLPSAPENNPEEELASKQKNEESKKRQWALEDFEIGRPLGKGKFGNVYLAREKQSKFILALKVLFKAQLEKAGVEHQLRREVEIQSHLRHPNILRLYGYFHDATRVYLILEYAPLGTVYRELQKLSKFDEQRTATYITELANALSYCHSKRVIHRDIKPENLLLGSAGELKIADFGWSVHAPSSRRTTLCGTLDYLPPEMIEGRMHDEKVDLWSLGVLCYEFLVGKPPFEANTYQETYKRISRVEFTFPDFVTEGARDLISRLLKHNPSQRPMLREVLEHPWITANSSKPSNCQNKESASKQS
Procedure, shortened: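 His-tagged Aurora A expressed in E. coli, Ni-purified; reaction in 50 mM Tris pH 7.4, 15 mM Mg acetate, 0.2 mM EDTA with 100 μM Kemptide, 20 μM ATP plus [γ-33P]ATP, 20 min at 30 °C. Phosphopeptide captured on P81 filters and counted by scintillation; DMSO control.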

Aurora B = molecular target: T2, Aurora B (Homo sapiens, UniProt Q96GD4); test: Aurora B inhibitory action (33P-ATP kinase assay, Kemptide substrate); format: biochemical; conditions: 100 μM ATP, 30° C., 20 minutes
T2 construct: histidine tag (N); made in house; host or cells: Escherichia coli BL21-CodonPlus(DE3)-RIL
Procedure, shortened: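 His-tagged Aurora B expressed in E. coli, reacted with 100 μM Kemptide, 100 μM ATP plus [γ-33P]ATP in Tris pH 7.4, 15 mM Mg acetate, 0.2 mM EDTA, 30 °C, 20 min. Peptide captured on P81 filters for scintillation counting; compounds added from DMSO dilutions.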

[1] = system: Human cervical cancer cells (HeLa S3); test: Cell growth inhibitory effect, WST-8 method; format: cell-based; conditions: 72 h, HeLa S3, three days incubation
Excerpt: Method for Judging the Pharmaceutical Effect Using cells
Fetal calf serum (FCS) was purchased from Moregate Biotech, and DMEM medium was purchased from Invitrogen Corp. WST-8 was purchased from Kishida Chemical Co., Ltd.
(§1) Human cervical cancer cells (HeLa S3) were obtained from the American Type Culture Collection (ATCC).
(§2) c) Method of Judging the Effect
Cells were suspended in a DMEM medium containing 10% FCS, and the cell suspension was dispensed to a 96-well plastic plate at a rate of 750 cells/l 00 microliters per well. The plate was incubated overnight in 5% CO2-95% air at 37° C. A drug was subjected to graded dilution in dimethylsulfoxide and further diluted with a DMEM medium containing 10% FCS. Then, the dilution was dispensed to the plate on which cells had been disseminated, at a rate of 100 microliters per well. The plate was incubated for further three days in 5% CO2-95% air at 37° C. Cell growth after incubation was measured by the WST-8 method (H. Tominaga, et al., Anal. Commun., 36, 47-50 (1999)). Here, the WST-8 method refers to a method in which 20 microliters of a WST-8 reagent solution is added to each well, incubation is conducted at 37° C. for 45 minutes, the plate is stirred, and the amount of formazan produced is measured by a calorimetric method to determine the inhibitory rate of the drug. The concentration for 50% growth inhibition (EC50, IM) of the compound was determined.

[2] = system: Human cervical cancer cells (HeLa S3); test: Effect by combined use of drugs in cells (with paclitaxel), WST-8 method; format: cell-based; conditions: three days; for inhibition at 0.3 µM: HeLa S3, compound 0.3 μM alone; for inhibition at 0.1 µM: HeLa S3, compound 0.1 μM alone; for inhibition at 3 µM: HeLa S3, compound 3.0 μM alone; for inhibition at 1 µM: HeLa S3, compound 1.0 μM alone
Excerpt: Method for Judging the Effect by Combined Use of Drugs in Cells
Fetal calf serum (FCS) was purchased from Moregate Biotech, DMEM medium from Invitrogen Corp., paclitaxel (tradename: Taxol) from Sigma-Aldrich, Inc., and WST-8 from Kishida Chemical Co., Ltd.
as §1, §2
Cells were suspended in a DMEM medium containing 10% FCS, and the cell suspension was dispensed to two 96-well plastic plates at a rate of 750 cells/100 microliters per well. The plates were incubated overnight in 5% CO2-95% air at 37° C. A drug was subjected to graded dilution in dimethylsulfoxide and flurther diluted with DMSO or with a DMEM medium containing 10% FCS and also containing 2 nM paclitaxel. Then, the dilutions were each dispensed to one of the plates on which cells had been disseminated, at a rate of 100 microliters per well. The final concentration of paclitaxel at this stage was 1 nM. Also, the concentrations in the case of sole administration of the compound according to the invention were 0.03, 0.1, 0.3, 1 and 3 μM. The plates were incubated for further three days in 5% CO2-95% air at 37° C. Cell growth after incubation was measured by the WST-8 method (H. Tominaga, et al., Anal. Commun., 36, 47-50 (1999)). Here, the WST-8 method refers to a method in which 20 microliters of a WST-8 reagent solution is added to each well, incubation is conducted at 37° C. for 45 minutes, the plate is stirred, and the amount of formazan produced is measured by a colorimetric method to determine the inhibitory rate of the drug. The growth inhibitory effects of paclitaxel and of the compound according to the invention were determined, with the value obtained in sole treatment of DMSO being defined as 0%.

[3] = HeLa S3, compound 0.3 μM + paclitaxel 1 nM
[4] = Homo sapiens, HeLa S3, 72 h, read-out: Cell growth inhibitory effect by sole administration of the compound of Example (%)
[5] = HeLa S3, compound 0.1 μM + paclitaxel 1 nM
[6] = HeLa S3, compound 3.0 μM + paclitaxel 1 nM
[7] = HeLa S3, compound 1.0 μM + paclitaxel 1 nM

T2 sequence (Q96GD4 whole entry): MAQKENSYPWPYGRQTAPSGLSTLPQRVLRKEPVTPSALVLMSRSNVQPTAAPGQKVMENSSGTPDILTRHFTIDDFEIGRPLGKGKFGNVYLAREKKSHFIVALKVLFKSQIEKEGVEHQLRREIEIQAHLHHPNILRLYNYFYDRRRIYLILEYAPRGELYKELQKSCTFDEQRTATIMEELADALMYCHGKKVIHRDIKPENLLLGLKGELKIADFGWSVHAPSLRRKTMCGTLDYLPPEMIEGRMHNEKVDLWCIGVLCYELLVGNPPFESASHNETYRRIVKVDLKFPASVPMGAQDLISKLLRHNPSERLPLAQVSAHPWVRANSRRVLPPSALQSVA

| Compound | IC50 (Aurora A) [nM] | IC50 (Aurora B) [nM] | IC50 [1] [nM] | Cell growth inhibitory effect by combined administration of paclitaxel and the compound of Example (%) [2, 3] [%] | inhibition at 0.3 µM [2, 4] [%] | other results |
| --- | --- | --- | --- | --- | --- | --- |
| Cc1cc(Nc2cccc(CN3CCN(C(=O)c4cccc(Br)c4F)CC3)n2)n[nH]1 [Example 28, 6-((4-(3-bromo-2-fluorobenzoyl)piperazin-1-yl)methyl)-N-(5-methyl-1H-pyrazol-3-yl)pyridin-2-amine] | 0.52 | 310 | 1100 | 84.5 | 0 |  |
| O=C(O)C(F)(F)F.O=C(c1cccc(C(F)(F)F)c1F)N1CCN(Cc2cccc(Nc3cc[nH]n3)n2)CC1 [Example 19, 6-((4-(2-fluoro-3-(trifluoromethyl)benzoyl)piperazin-1-yl)methyl)-N-1H-pyrazol-3-ylpyridin-2-amine trifluoroacetate] | 0.9 | 530 | 920 |  |  | Cell growth inhibitory effect by combined administration of paclitaxel and the compound of Example (%) [2, 5]: 77.6%; inhibition at 0.1 µM [2, 4]: 0% |
| O=C(Cc1ccc(Cl)cc1)N1CCN(Cc2cccc(Nc3ncc(Cl)s3)n2)CC1.O=C(O)C(F)(F)F [Example 77, 6-((4-((4-chlorophenyl)acetyl)piperazin-1-yl)methyl)-N-(5-chlorothiazol-2-yl)pyridin-2-amine trifluoroacetate] | 4.1 | 1300 | 1600 | 51.8 | 2.2 |  |
| N#Cc1cc(CN2CCN(C(=O)c3cccc(Cl)c3F)CC2)nc(Nc2nccs2)c1 [Example 104, 2-((4-(3-chloro-2-fluorobenzoyl)piperazin-1-yl)methyl)-6-(thiazol-2-ylamino)isonicotinonitrile] | 1.1 | 1400 | 990 | 81.6 | 6.3 |  |
| O=C(O)C(F)(F)F.O=C(c1cccc(Cl)c1Cl)N1CCN(Cc2cccc(Nc3ncns3)n2)CC1 [Example 36, 6-((4-(2,3-dichlorobenzoyl)piperazin-1-yl)methyl)-N-1,2,4-thiadiazol-5-ylpyridin-2-amine trifluoroacetate] | 2.6 | 3200 | 6800 |  |  | Cell growth inhibitory effect by combined administration of paclitaxel and the compound of Example (%) [2, 6]: 83.4%; inhibition at 3 µM [2, 4]: 17.2% |
| Cc1cc(Nc2cccc(CN3CCN(C(=O)c4cccc(Cl)c4F)CC3)n2)n[nH]1 [Example 25, 6-((4-(3-chloro-2-fluorobenzoyl)piperazin-1-yl)methyl)-N-(5-methyl-1H-pyrazol-3-yl)pyridin-2-amine] | 1.1 | 770 | 800 |  |  | Cell growth inhibitory effect by combined administration of paclitaxel and the compound of Example (%) [2, 5]: 65.1%; inhibition at 0.1 µM [2, 4]: 0% |
| O=C(c1cccc(Cl)c1F)N1C[C@@H]2C[C@H]1CN2Cc1cncc(Nc2cc[nH]n2)n1 [Example 46, 6-(((1S,4S)-5-(3-chloro-2-fluorobenzoyl)-2,5-diazabicyclo[2.2. 1]hept-2-yl)methyl)-N-1H-pyrazol-3-ylpyrazin-2-amine] | 6.1 | 1400 | 4100 |  |  | Cell growth inhibitory effect by combined administration of paclitaxel and the compound of Example (%) [2, 7]: 75.0%; inhibition at 1 µM [2, 4]: 8.5% |
| Cc1nc(C(=O)N2CCN(Cc3cccc(Nc4ncc(Cl)s4)n3)CC2)cs1 [Example 68, 6-((4-((2-methyl-thiazol-4-yl)carbonyl)piperazin-1-yl)methyl)-N-(5-chlorothiazol-2-yl)pyridin-2-amine] | 11 | 670 | 5100 |  |  | Cell growth inhibitory effect by combined administration of paclitaxel and the compound of Example (%) [2, 6]: 71.8%; inhibition at 3 µM [2, 4]: 27.3% |
| Cc1cc(Nc2cncc(CN3CCN(C(=O)c4cccc(Cl)c4F)CC3)n2)n[nH]1 [Example 56, 6-((4-(3-chloro-2-fluorobenzoyl)piperazin-1-yl)methyl)-N-(5-methyl-1H-pyrazol-3-yl)pyrazin-2-amine] | 2.1 | 2900 | 1400 | 81.8 | 6.5 |  |
| Cn1nnc(-c2cc(CN3CCN(C(=O)c4cccc(Cl)c4F)CC3)nc(Nc3nccs3)c2)n1 [Example 107, 6-((4-(3-chloro-2-fluorobenzoyl)piperazin-1-yl)methyl)-4-(2-methyl-2H-tetrazol-5-yl)-N-thiazol-2-ylpyridin-2-amine] | 0.32 | 190 | 210 |  |  | Cell growth inhibitory effect by combined administration of paclitaxel and the compound of Example (%) ([2]; HeLa S3, compound 0.03 μM + paclitaxel 1 nM): 74.1%; inhibition at 0.03 µM ([2]; Homo sapiens, HeLa S3, 72 h, HeLa S3, compound 0.03 μM alone, read-out: Cell growth inhibitory effect by sole administration of the compound of Example (%)): 11.5% |
| CC(=O)O[C@H]1C(=O)[C@@]2(C)[C@H]([C@H](OC(=O)c3ccccc3)[C@]3(O)C[C@H](OC(=O)[C@H](O)[C@@H](NC(=O)c4ccccc4)c4ccccc4)C(C)=C1C3(C)C)[C@]1(OC(C)=O)CO[C@@H]1C[C@@H]2O [paclitaxel, reference compound] |  |  |  |  |  | Cell growth inhibitory effect by sole administration of paclitaxel (1 nM) (%) ([2]; HeLa S3, paclitaxel 1 nM alone): 37.8% and 45.4% and 43.3% and 36.8%; inhibition at 0.001 µM ([2]; Homo sapiens, HeLa S3, 72 h, HeLa S3, paclitaxel 1 nM alone, read-out: Cell growth inhibitory effect by sole administration of paclitaxel (1 nM) (%)): 44.1% |
| Cc1cc(Nc2cccc(CN3CCN(C(=O)c4cccc(C(F)(F)F)c4Cl)CC3)n2)n[nH]1 [Example 30, 6-((4-(2-chloro-3-(trifluoromethyl)benzoyl)piperazin-1-yl)methyl)-N-(5-methyl-1H-pyrazol-3-yl)pyridin-2-amine] | 1.1 | 320 | 2500 |  |  | Cell growth inhibitory effect by combined administration of paclitaxel and the compound of Example (%) [2, 7]: 90.1%; inhibition at 1 µM [2, 4]: 29.1% |
